Assays:
[1] = system: pale smartweed (Po); assay: Test Example 6: crop plant selectivity by upland field soil treatment (soybean), herbicidal effects; assay type: in vivo; design: scale not given here; conditions: 21st day after application
Procedure, shortened: (§1)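 Scoring took place 21 days after treatment using a set grading standard, covering both weed control and soybean injury. Seeds of soybean and weed species went into sand-filled pots under a soil cover before soil treatment and greenhouse culture.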

[2] = system: common lambsquarters (Ch); assay: as above; assay type: in vivo; design: scale not given here; conditions: 21st day after application
Procedure, shortened: as §1

[3] = system: China jute (Ab); assay: as above; assay type: in vivo; design: scale not given here; conditions: 21st day after application
Procedure, shortened: as §1

[4] = system: slender amaranth (Am); assay: as above; assay type: in vivo; design: scale not given here; conditions: 21st day after application
Procedure, shortened: as §1

[5] = system: green foxtail (Se); assay: as above; assay type: in vivo; design: scale not given here; conditions: 21st day after application
Procedure, shortened: as §1

[6] = system: common lambsquarters (Ch); assay: Test Example 11: crop plant selectivity by upland field foliage treatment (corn), herbicidal effects; assay type: in vivo; design: scale not given here; conditions: dose 1.6 g ai/10a
Procedure, shortened: (§2)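 Corn and the weed species were sown together in sand-filled pots and grown in a greenhouse for 2 weeks before foliar treatment. Herbicidal effect was scored on day 14 after treatment against a graded standard scale, with corn phytotoxicity scored alongside.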

[7] = system: slender amaranth (Am); assay: as above; assay type: in vivo; design: scale not given here; conditions: dose 1.6 g ai/10a
Procedure, shortened: as §2

[8] = system: common lambsquarters (Ch); assay: Test Example 10: crop plant selectivity by upland field foliage treatment (soybean), herbicidal effects; assay type: in vivo; conditions: dose 1.6 g ai/10a, 14th day after treatment
Method: (§3) (Test on Crop Plant Selectivity by Upland Field Foliage Treatment)
(§4) In a plastic pot (surface area: 600 cm^2) filled with sand, soybean (Gl), pale smartweed (Po), slender amaranth (Am), common lambsquarters (Ch) and China jute (Ab) were sown and cultured in a green house for 2 weeks. […] The plants were then cultured in a green house, and the evaluation of the herbicidal effects and phytotoxicity was conducted on the 14th day after the treatment in accordance with the standards as identified in Table 47.

[9] = system: China jute (Ab); assay: as above; assay type: in vivo; conditions: dose 1.6 g ai/10a, 14th day after treatment
Method: as §3, §4

[10] = system: soybean (Gl); assay: Test Example 10: crop plant selectivity by upland field foliage treatment (soybean), phytotoxicity; conditions: dose 1.6 g ai/10a, 14th day after treatment
Method: as §3, §4

[11] = upland field foliage treatment (corn test), 14th day after treatment

| Structure (SMILES) | Herbicidal effects Po ([1]; dose 1.6 g ai/10a) | Herbicidal effects Po ([1]; dose 6.3 g ai/10a) | Herbicidal effects Ch ([2]; dose 1.6 g ai/10a) | Herbicidal effects Ch ([2]; dose 6.3 g ai/10a) | Herbicidal effects Ab ([3]; dose 1.6 g ai/10a) | Herbicidal effects Ab ([3]; dose 6.3 g ai/10a) | Herbicidal effects Am ([4]; dose 1.6 g ai/10a) | Herbicidal effects Am ([4]; dose 6.3 g ai/10a) | Herbicidal effects Se ([5]; dose 1.6 g ai/10a) | Herbicidal effects Se ([5]; dose 6.3 g ai/10a) | melting point [°C] | Herbicidal effects Ch [6, 11] | Herbicidal effects Am [7, 11] | Herbicidal effects Ch [8] | Herbicidal effects Ab [9] | Phytotoxicity Gl [10] | Herbicidal effects Ch ([6]; common lambsquarters, foliage treatment, evaluated on 14th day after treatment, index per Table 47) | Herbicidal effects Am ([7]; slender amaranth, foliage treatment, evaluated on 14th day after treatment, index per Table 47) |
| --- | --- | --- | --- | --- | --- | --- | --- | --- | --- | --- | --- | --- | --- | --- | --- | --- | --- | --- |
| Cn1cc(-c2cc(Oc3ccccc3)c(Cl)cc2F)c(=O)cc1C(F)(F)F [Compound No. 6-19, 5-(4-chloro-2-fluoro-5-phenoxyphenyl)-1-methyl-2-trifluoromethyl-4(1H)-pyridone] | 5 | 5 | 3 | 5 | 3 | 5 | 5 | 5 | 5 | 5 | 159 to 161 |  |  |  |  |  |  |  |
| C#CCn1c(=O)sc2cc(F)c(-c3ccc(C(F)(F)F)n(C)c3=O)cc21 [Compound No. 3-1, 3-[6-fluoro-3-(2-propynyl)-benzothiazolin-2-on-5-yl]-1-methyl-6-trifluoromethyl-2(1H)-pyridone] |  | 5 |  | 5 |  | 5 |  | 5 |  | 5 | 150 to 151 |  |  |  |  |  |  |  |
| COCc1cc2c(-c3ccc(C(F)(F)F)n(C)c3=O)c(F)cc(Cl)c2o1 [Compound No. 4-4, 3-(7-chloro-5-fluoro-2-methoxymethylbenzofuran-4-yl)-1-methyl-6-trifluoromethyl-2-(1H)-pyridone] |  | 5 |  | 5 |  | 5 |  | 5 |  | 5 | 136 to 137 | 5 | 5 |  |  |  |  |  |
| CSCOc1cc(-c2ccc(C(F)(F)F)n(C)c2=O)c(F)cc1Cl [Compound 1-208] |  | 4 |  | 5 |  | 5 |  | 5 |  | 5 |  | 5 | 5 | 5 | 5 | 2 |  |  |
| Cn1c(C(F)(F)F)ccc(-c2c(F)cc(Cl)c3occc23)c1=O [Compound No. 4-28, 3-(7-chloro-5-fluorobenzofuran-4-yl)-1-methyl-6-trifluoromethyl-2-(1H)-pyridone] | 5 |  | 5 |  | 5 |  | 5 |  | 5 |  | 178 to 179 | 5 | 5 |  |  |  |  |  |
| CCCc1cc2c(-c3ccc(C(F)(F)F)n(C)c3=O)c(F)cc(Cl)c2o1 [Compound 4-3] |  | 5 |  | 5 |  | 5 |  | 5 |  | 5 |  | 5 | 5 | 5 | 5 | 2 |  |  |
| CCON=Cc1cc(-c2ccc(C(F)(F)F)n(C)c2=O)c(F)cc1Cl [Compound 1-187] |  | 5 |  | 5 |  | 5 |  | 5 |  | 5 |  | 5 | 5 | 5 | 5 | 2 |  |  |
| Cn1c(C(F)(F)F)ccc(-c2cc(C#N)c(Cl)cc2F)c1=O [Compound No. 1-119, 3-(4-chloro-5-cyano-2-fluorophenyl)-1-methyl-6-trifluoromethyl-2(1H)-pyridone] |  | 5 |  | 5 |  | 5 |  | 5 |  | 5 | 180 to 181 | 5 | 5 | 5 | 4 | 2 |  |  |
| CCc1cc2c(Cl)cc(F)c(-c3ccc(C(F)(F)F)n(C)c3=O)c2o1 [Compound 5-2] |  | 5 |  | 5 |  | 5 |  | 5 |  | 5 |  |  |  | 5 | 5 | 2 | 5 | 5 |
| Cn1c(C(F)(F)F)ccc(-c2c(F)cc(Cl)c3oc(CO)cc23)c1=O [Compound No. 4-5, 3-(7-chloro-5-fluoro-2-hydroxymethylbenzofuran-4-yl)-1-methyl-6-trifluoromethyl-2-(1H)-pyridone] |  | 5 |  | 5 |  | 5 |  | 5 |  | 5 | 145 to 147 | 5 | 5 |  |  |  |  |  |
| Cn1c(C(F)(F)F)ccc(-c2cc(OCCCl)c(Cl)cc2F)c1=O [1-171] |  | 5 |  | 5 |  | 5 |  | 5 |  | 5 |  | 5 | 5 | 5 | 5 | 2 |  |  |

Reference: patent publication US6472348B1, “Pyridone derivatives and herbicides” (Kumiai Chemical Industry Co., Ltd., priority 1996, dated 2002)
